{"source": "ChEMBL document CHEMBL1142822", "about": "“Analysis of structure-activity relationships for the 'A-region' of N-(4-t-butylbenzyl)-N'-[4-(methylsulfonylamino)benzyl]thiourea analogues as TRPV1 antagonists” (Bioorg Med Chem Lett, 2005)", "data": [{"target": "T1, Transient receptor potential cation channel subfamily V member 1 (Rattus norvegicus, UniProt O35433)", "T1 sequence (O35433 whole entry)": "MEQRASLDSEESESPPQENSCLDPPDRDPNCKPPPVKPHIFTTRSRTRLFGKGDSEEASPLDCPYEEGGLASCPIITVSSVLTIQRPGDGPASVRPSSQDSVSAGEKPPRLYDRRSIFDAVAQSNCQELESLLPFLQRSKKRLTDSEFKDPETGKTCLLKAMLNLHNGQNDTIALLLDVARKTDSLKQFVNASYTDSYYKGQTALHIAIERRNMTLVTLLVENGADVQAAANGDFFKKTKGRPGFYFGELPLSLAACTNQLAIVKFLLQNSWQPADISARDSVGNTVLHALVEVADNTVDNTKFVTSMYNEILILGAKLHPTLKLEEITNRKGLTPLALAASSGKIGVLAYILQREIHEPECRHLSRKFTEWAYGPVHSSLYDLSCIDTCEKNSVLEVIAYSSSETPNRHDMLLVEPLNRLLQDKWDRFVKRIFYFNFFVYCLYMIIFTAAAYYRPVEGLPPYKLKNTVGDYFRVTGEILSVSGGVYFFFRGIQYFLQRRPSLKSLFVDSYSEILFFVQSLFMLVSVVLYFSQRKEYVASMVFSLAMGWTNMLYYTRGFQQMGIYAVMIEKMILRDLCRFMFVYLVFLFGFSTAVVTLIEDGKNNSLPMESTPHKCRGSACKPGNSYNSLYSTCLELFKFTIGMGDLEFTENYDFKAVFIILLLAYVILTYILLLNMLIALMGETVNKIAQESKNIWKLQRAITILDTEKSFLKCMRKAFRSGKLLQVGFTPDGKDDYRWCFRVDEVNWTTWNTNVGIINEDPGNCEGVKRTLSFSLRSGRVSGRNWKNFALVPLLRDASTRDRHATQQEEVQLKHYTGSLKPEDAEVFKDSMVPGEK", "experiment": "Antagonist activity for rat TRPV1 expressed in CHO cells", "type": "functional, cell-based", "conditions": "not given; call rule not given here", "units": {"Ki": "nM"}, "values": [{"smiles": "CC(C)(C)c1ccc(C/N=C(\\S)NCc2ccc(NS(C)(=O)=O)cn2)cc1", "Ki": 4100}, {"smiles": "CC(C)(C)c1ccc(C/N=C(\\S)NCc2ccc(NS(C)(=O)=O)cc2F)cc1", "Ki": 27.3}, {"smiles": "CC(C)(C)c1ccc(C/N=C(\\S)NCc2ccc(NS(C)(=O)=O)cc2Cl)cc1", "Ki": 45.5}, {"smiles": "CC(C)(C)c1ccc(C/N=C(\\S)NCc2ccc(NS(=O)(=O)CCN=[N+]=[N-])cc2)cc1", "Ki": 231}, {"smiles": "CC(C)Oc1cc(C/N=C(\\S)NCc2ccc(C(C)(C)C)cc2)ccc1NS(C)(=O)=O", "Ki": 3600}, {"smiles": "CC(C)(C)c1ccc(C/N=C(\\S)NCc2ccc(NS(C)(=O)=O)c(Cl)c2)cc1", "Ki": 400}, {"smiles": "CC(C)(C)c1ccc(C/N=C(\\S)Nc2ccc(NS(C)(=O)=O)cc2)cc1", "Ki": 6800}, {"smiles": "CC(C)(C)c1ccc(C/N=C(\\S)NCc2ccc(NS(C)(=O)=O)cc2C(F)(F)F)cc1", "Ki": 119}, {"smiles": "CC(C)(C)c1ccc(C/N=C(\\S)NCc2ccc(NS(C)(=O)=O)c([N+](=O)[O-])c2)cc1", "Ki": 610}, {"smiles": "CC(C)(C)c1ccc(C/N=C(\\S)NCc2ccc(NS(C)(=O)=O)nc2)cc1", "Ki": 177}, {"smiles": "CC(C)(C)c1ccc(C/N=C(\\S)NCCc2ccc(NS(C)(=O)=O)cc2)cc1", "Ki": 699}]}, {"target": "T1, Transient receptor potential cation channel subfamily V member 1", "experiment": "In vitro binding affinity for rat TRPV1 expressed in CHO cells using [3H]RTX; Not effective", "type": "cell-based", "conditions": "not given", "values": [{"smiles": "CC(C)(C)c1ccc(C/N=C(\\S)NCc2ccc(NS(C)(=O)=O)c(S(C)(=O)=O)c2)cc1", "Ki": "Not Active"}, {"smiles": "CC(C)(C)c1ccc(C/N=C(\\S)NCc2cnc(NS(C)(=O)=O)cn2)cc1", "Ki": "Not Active"}]}, {"target": "T1, Transient receptor potential cation channel subfamily V member 1", "experiment": "Agonist activity by [Ca2+] uptake in CHO cells expressing rat TRPV1 at 10-30 uM; WE = Weakly effective", "type": "functional, cell-based", "conditions": "not given", "values": [{"smiles": "CC(C)(C)c1ccc(C/N=C(\\S)NCc2ccc(NS(N)(=O)=O)cc2)cc1", "EC50": "Partial agonist"}, {"smiles": "CC(C)(C)c1ccc(C/N=C(\\S)Nc2ccc(NS(C)(=O)=O)cc2)cc1", "EC50": "Partial agonist"}, {"smiles": "CC(C)(C)c1ccc(C/N=C(\\S)NCc2ccc(NS(C)(=O)=O)c(O)c2)cc1", "EC50": "Partial agonist"}]}, {"target": "T1, Transient receptor potential cation channel subfamily V member 1", "experiment": "(§1) Agonist activity by [Ca2+] uptake in CHO cells expressing rat TRPV1 at 10-30 uM; NE = Not effective", "type": "functional, cell-based", "conditions": "cho", "values": [{"smiles": "CC(C)(C)c1ccc(C/N=C(\\S)NCc2ccc(NS(C)(=O)=O)cn2)cc1", "EC50": "Not Active"}, {"smiles": "CC(C)(C)c1ccc(C/N=C(\\S)NCc2ccc(NS(C)(=O)=O)cc2F)cc1", "EC50": "Not Active"}, {"smiles": "CC(C)(C)c1ccc(C/N=C(\\S)NCc2ccc(NS(C)(=O)=O)cc2Cl)cc1", "EC50": "Not Active"}, {"smiles": "CC(C)(C)c1ccc(CNC(=S)NCc2ccc(NS(C)(=O)=O)c(F)c2)cc1", "EC50": "Not Active"}, {"smiles": "CC(C)Oc1cc(C/N=C(\\S)NCc2ccc(C(C)(C)C)cc2)ccc1NS(C)(=O)=O", "EC50": "Not Active"}, {"smiles": "Oc1cc2c(cc1O)CN(C(=S)NCCc1ccc(Cl)cc1)CCC2", "note": "[CAPSAZEPINE]", "EC50": "Not Active"}, {"smiles": "CC(C)(C)c1ccc(C/N=C(\\S)NCc2ccc(NS(C)(=O)=O)c(S(C)(=O)=O)c2)cc1", "EC50": "Not Active"}, {"smiles": "CC(C)(C)c1ccc(C/N=C(\\S)NCc2ccc(NS(=O)(=O)CCN)cc2)cc1", "EC50": "Not Active"}, {"smiles": "CC(C)(C)c1ccc(CNC(=S)NCc2ccc(NS(C)(=O)=O)cc2)cc1", "EC50": "Not Active"}, {"smiles": "CC(C)(C)c1ccc(C/N=C(\\S)NCc2ccc(NS(C)(=O)=O)cc2C(F)(F)F)cc1", "EC50": "Not Active"}, {"smiles": "CC(C)(C)c1ccc(C/N=C(\\S)NCc2ccc(NS(C)(=O)=O)c([N+](=O)[O-])c2)cc1", "EC50": "Not Active"}, {"smiles": "CC(C)(C)c1ccc(C/N=C(\\S)NCc2ccc(NS(C)(=O)=O)nc2)cc1", "EC50": "Not Active"}, {"smiles": "CC(C)(C)c1ccc(C/N=C(\\S)NCc2cnc(NS(C)(=O)=O)cn2)cc1", "EC50": "Not Active"}]}, {"target": "T1, Transient receptor potential cation channel subfamily V member 1", "experiment": "as §1", "type": "functional, cell-based", "conditions": "read-out: EC50", "units": {"EC50": "nM"}, "values": [{"smiles": "C[S+]([O-])c1cccc(C/N=C(\\S)NCc2ccc(C(C)(C)C)cc2)c1", "note": "(stereo not drawn)", "EC50": 1890}, {"smiles": "CC(C)(C)c1ccc(C/N=C(\\S)NCc2cccc(NS(C)(=O)=O)c2)cc1", "EC50": 4100}]}, {"target": "T1, Transient receptor potential cation channel subfamily V member 1", "experiment": "Agonist activity by [Ca2+] uptake in CHO cells expressing rat TRPV1 at 10-30 uM", "type": "functional, cell-based", "conditions": "not given", "units": {"EC50": "nM"}, "values": [{"smiles": "C=CS(=O)(=O)Nc1ccc(CN/C(S)=N/Cc2ccc(C(C)(C)C)cc2)cc1", "EC50": 250}, {"smiles": "CC(C)(C)c1ccc(C/N=C(\\S)NCc2ccc(CNS(C)(=O)=O)cc2)cc1", "EC50": 1720}]}, {"target": "T1, Transient receptor potential cation channel subfamily V member 1", "experiment": "Agonist activity by 300 nM capsaicin induced [Ca2+] uptake in CHO cells expressing rat TRPV1 at 10-30 uM; NE = Not effective", "type": "functional, cell-based", "conditions": "not given", "values": [{"smiles": "CC(C)(C)c1ccc(C/N=C(\\S)NCc2ccc(NS(=O)(=O)CCN=[N+]=[N-])cc2)cc1", "EC50": "Not Active"}, {"smiles": "CC(C)(C)c1ccc(C/N=C(\\S)NCc2ccc(NS(C)(=O)=O)c(Cl)c2)cc1", "EC50": "Not Active"}]}, {"target": "T1, Transient receptor potential cation channel subfamily V member 1", "experiment": "(§2) Agonist activity by 300 nM capsaicin induced [Ca2+] uptake in CHO cells expressing rat TRPV1 at 10-30 uM; WE = Weakly effective", "type": "functional, cell-based", "conditions": "cho", "values": [{"smiles": "COc1cc(CNC(=S)NCc2ccc(C(C)(C)C)cc2)ccc1NS(C)(=O)=O", "EC50": "Partial agonist"}, {"smiles": "CSc1cccc(C/N=C(\\S)NCc2ccc(C(C)(C)C)cc2)c1", "EC50": "Partial agonist"}, {"smiles": "CC(C)(C)c1ccc(C/N=C(\\S)NCCc2ccc(NS(C)(=O)=O)cc2)cc1", "EC50": "Partial agonist"}]}, {"target": "T1, Transient receptor potential cation channel subfamily V member 1", "experiment": "as §2", "type": "functional, cell-based", "conditions": "read-out: EC50", "units": {"EC50": "nM"}, "values": [{"smiles": "CC(C)(C)c1ccc(C/N=C(\\S)NCc2cccc(S(C)(=O)=O)c2)cc1", "EC50": 1010}]}, {"target": "T1, Transient receptor potential cation channel subfamily V member 1", "experiment": "Antagonist activity for rat TRPV1 expressed in CHO cells; Weakly effective", "type": "functional, cell-based", "conditions": "not given", "values": [{"smiles": "CC(C)(C)c1ccc(C/N=C(\\S)NCc2ccc(NS(N)(=O)=O)cc2)cc1", "Ki": "Partial antagonist"}, {"smiles": "CC(C)(C)c1ccc(C/N=C(\\S)NCc2ccc(NS(=O)(=O)CCN)cc2)cc1", "Ki": "Partial antagonist"}, {"smiles": "CC(C)(C)c1ccc(C/N=C(\\S)NCc2ccc(NS(C)(=O)=O)c(O)c2)cc1", "Ki": "Partial antagonist"}]}, {"target": "T1, Transient receptor potential cation channel subfamily V member 1", "experiment": "In vitro binding affinity for rat TRPV1 expressed in CHO cells using [3H]-RTX", "type": "cell-based", "conditions": "not given", "units": {"Ki": "nM"}, "values": [{"smiles": "CC(C)(C)c1ccc(C/N=C(\\S)NCc2ccc(NS(C)(=O)=O)cc2F)cc1", "Ki": 215}, {"smiles": "CC(C)(C)c1ccc(C/N=C(\\S)NCc2ccc(NS(C)(=O)=O)cc2Cl)cc1", "Ki": 144}, {"smiles": "CC(C)(C)c1ccc(C/N=C(\\S)NCc2ccc(NS(=O)(=O)CCN=[N+]=[N-])cc2)cc1", "Ki": 145}, {"smiles": "CC(C)(C)c1ccc(C/N=C(\\S)NCc2ccc(NS(N)(=O)=O)cc2)cc1", "Ki": 650}, {"smiles": "CC(C)Oc1cc(C/N=C(\\S)NCc2ccc(C(C)(C)C)cc2)ccc1NS(C)(=O)=O", "Ki": 8070}, {"smiles": "CC(C)(C)c1ccc(C/N=C(\\S)NCc2cccc(S(C)(=O)=O)c2)cc1", "Ki": 1000}, {"smiles": "CC(C)(C)c1ccc(C/N=C(\\S)NCc2ccc(NS(C)(=O)=O)c(Cl)c2)cc1", "Ki": 1160}, {"smiles": "CC(C)(C)c1ccc(C/N=C(\\S)Nc2ccc(NS(C)(=O)=O)cc2)cc1", "Ki": 9560}, {"smiles": "CC(C)(C)c1ccc(C/N=C(\\S)NCc2ccc(NS(=O)(=O)CCN)cc2)cc1", "Ki": 4640}, {"smiles": "C=CS(=O)(=O)Nc1ccc(CN/C(S)=N/Cc2ccc(C(C)(C)C)cc2)cc1", "Ki": 231}, {"smiles": "CC(C)(C)c1ccc(C/N=C(\\S)NCc2ccc(NS(C)(=O)=O)cc2C(F)(F)F)cc1", "Ki": 440}, {"smiles": "CC(C)(C)c1ccc(C/N=C(\\S)NCc2ccc(NS(C)(=O)=O)c([N+](=O)[O-])c2)cc1", "Ki": 1300}, {"smiles": "CC(C)(C)c1ccc(C/N=C(\\S)NCc2ccc(NS(C)(=O)=O)nc2)cc1", "Ki": 4100}, {"smiles": "C[S+]([O-])c1cccc(C/N=C(\\S)NCc2ccc(C(C)(C)C)cc2)c1", "note": "(stereo not drawn)", "Ki": 3600}, {"smiles": "CC(C)(C)c1ccc(C/N=C(\\S)NCc2ccc(NS(C)(=O)=O)c(O)c2)cc1", "Ki": 750}, {"smiles": "CSc1cccc(C/N=C(\\S)NCc2ccc(C(C)(C)C)cc2)c1", "Ki": 580}, {"smiles": "CC(C)(C)c1ccc(C/N=C(\\S)NCCc2ccc(NS(C)(=O)=O)cc2)cc1", "Ki": 3900}, {"smiles": "CC(C)(C)c1ccc(C/N=C(\\S)NCc2cccc(NS(C)(=O)=O)c2)cc1", "Ki": 6000}]}, {"target": "T1, Transient receptor potential cation channel subfamily V member 1", "experiment": "Antagonist activity for rat TRPV1 expressed in CHO cells; Not effective", "type": "functional, cell-based", "conditions": "not given", "values": [{"smiles": "CC(C)(C)c1ccc(C/N=C(\\S)NCc2cccc(S(C)(=O)=O)c2)cc1", "Ki": "Not Active"}, {"smiles": "CC(C)(C)c1ccc(C/N=C(\\S)NCc2ccc(NS(C)(=O)=O)c(S(C)(=O)=O)c2)cc1", "Ki": "Not Active"}, {"smiles": "C=CS(=O)(=O)Nc1ccc(CN/C(S)=N/Cc2ccc(C(C)(C)C)cc2)cc1", "Ki": "Not Active"}, {"smiles": "C[S+]([O-])c1cccc(C/N=C(\\S)NCc2ccc(C(C)(C)C)cc2)c1", "note": "(stereo not drawn)", "Ki": "Not Active"}, {"smiles": "CC(C)(C)c1ccc(C/N=C(\\S)NCc2cnc(NS(C)(=O)=O)cn2)cc1", "Ki": "Not Active"}, {"smiles": "CSc1cccc(C/N=C(\\S)NCc2ccc(C(C)(C)C)cc2)c1", "Ki": "Not Active"}, {"smiles": "CC(C)(C)c1ccc(C/N=C(\\S)NCc2cccc(NS(C)(=O)=O)c2)cc1", "Ki": "Not Active"}, {"smiles": "CC(C)(C)c1ccc(C/N=C(\\S)NCc2ccc(CNS(C)(=O)=O)cc2)cc1", "Ki": "Not Active"}]}]}
